Experimental data as given in patent US20250074946A1, “USE OF SE-DR AFFINITY PEPTIDE IN PREPARING DRUG FOR TREATING RHEUMATIC DISEASE” (HEBEI FITNESS BIOTECHNOLOGY CO., LTD., priority 2021, published 2025).
Where no end group is shown, it is not given here.

Columns and labels:
CIA rats [1] = experiment: APL20 in combination with methotrexate in CIA rats (Example 11); format: in vivo, rat
CIA rats [2] = experiment: as above; format: in vivo, rat; conditions: for inflammation score during drug discontinuation compared with that at the time of drug discontinuation: 21 days of observation after stopping at day 21; for Pathological score during 21 days of drug discontinuation: HE staining of ankle joint, score 0-4; for AUC, during drug discontinuation (day 22-42): inflammation score AUC after stopping administration at day 21
Source text: Female Lewis rats were used to establish CIA model. Methods: the rats were immunized by intradermal injecting the emulsion prepared by bovine C II and IFA at the tail head. After 7 days, the rats were boosted once with the same method. Thereafter, the morphological changes of the four paws of the rats were examined every day, and the rats were randomly assigned to the treatment group at the inflammation score of 1. […] Another 8 female Lewis rats were not subjected to model establishment and set as the control group. PBS was administrated to both the model group and the control group. Corresponding drugs were administrated to the rats in each group by tail vein injection at the volume of 5 mL/kg, in which methotrexate was administrated twice a week, and other drugs were administrated once every other day, for 21 consecutive days, followed by a recovery period of 21 days. The inflammation scores of the four paws of the rats in each group were evaluated during the administration (once every other day), and the area under the curve (AUC) of the inflammation score was calculated during the administration. During drug discontinuation, the inflammation scores of the four paws of the rats in each group were continuously evaluated (once every other day), and the rats were sacrificed on day 22 after drug discontinuation. HE staining was performed on the ankle joint for tissue injury evaluation. The specific scoring criteria were as follows: 0=normal synovial tissue; 1=synovial hyperplasia and inflammatory cell infiltration; 2-pannus formation and cartilage erosion; 3=destruction of most of the cartilage with subchondral bone erosion; 4=loss of joint integrity, ankylosis.

rats = conditions: cited from earlier work
HLA-DR1 [3] = experiment: Determination of polypeptide affinity (fluorescence polarization competition); format: binding, human; conditions: competition with 25 nM fluorescently-labeled polypeptide, 500 nM HLA-DR1, pH 7.4, 37° C. 30 min, fluorescence polarization, curve fitting
Experimental: (§1) The reaction system was at pH 7.4. Before use, protease inhibitor cocktail was added, and incubated at 37° C. for 30 min. The fluorescence polarization values were read. The mean value of the free labeled polypeptides was set as FP_free, and the value of the well without the competitive peptide was set as FP_no_comp. The relative binding rate of other wells was calculated according to the formula=(FP_sample−FP_free)/(FP_no_comp−FP_free). A curve was plotted using the relative binding rate and the concentration of the test polypeptide, and the IC50 value was calculated by curve fitting.

HLA-DR1 [4] = molecular target: HLA-DR1 (Homo sapiens, UniProt P01903+P01911, A100R/D57E/F55L/F60I/F76Y/I96L/L162R/M171V/P40L/Q125E/R42F/V115G/Y59C); experiment: as above; format: binding
Experimental: as §1

CIA rats [5] = experiment: CIA rat model: inflammation score AUC and peripheral blood T-cell subtypes (Example 3); format: in vivo; conditions: 0.2 mmol
Experimental: Collagen-induced arthritis (CIA) model was established by intradermal injection of the emulsion formulated using type II bovine collagen (CII) together with incomplete Freund's adjuvant (IFA) into the tail head of a female Lewis rat. After the model establishment, the morphological changes of rats' four paws were examined every day. […] Except for the model group, the dosage of polypeptide was all set as 0.2 mmol. A control group was also set up, in which the drug was injected into the tail vein once every other day for […]. The area under the curve (AUC) of the inflammation score was used for the efficacy analysis from the day the rats were enrolled, once every other day, until the end of administration.

PBMC = PBMC stimulation test, IL-6 in supernatant by ELISA; format: cell-based, human; conditions: PBMC 1×10^6 cell/ml, peptide 10 μg/ml, 5 days of culture
Source text: The SE-DR molecule is directly related to the pathogenesis of RA. It can present RA-related autoantigens in vivo, such as type II collagen (CII), heat shock protein 60 (Hsp60), cartilage glycoprotein (HCgp-39) and so on, and further activate autoreactive T cells, leading to the occurrence of rheumatoid arthritis. An important strategy for the treatment of RA is to use competitive inhibition to block the activation of autoreactive T cells by autoantigen peptides. […] Based on the above principles, we have designed and synthesized a series of altered peptide ligands, and screened for their affinity to SE-DR and for the activation ability on the peripheral blood T cells in RA patients. The specific steps and results are shown in Example 1 and Example 2.
3 mL ficoll was added to a 15 mL centrifuge tube, and 4 mL blood sample was then applied on the surface of ficoll. The tube was centrifuged at 400 g at 18-20° C. for 30-40 min. The upper layer of plasma was aspirated with a Pasteur pipette, and the PBMC layer (approximately 2 mL) was aspirated, and added to a 14 mL centrifuge tube previously filled with at least 3 volumes (6 mL) of PBS. The mixture was gently resuspended. The tube was centrifuged at 60-100 g for 10 min at 18-20° C. After centrifugation, the supernatant was removed with a Pasteur pipette, and the resulting cell mass was resuspended in 6-8 mL PBS and centrifuged at 18-20° C. for 10 min at 60-100 g to remove the supernatant. The cells were resuspended in an appropriate amount of 1640 complete medium and diluted to 1×10^6 cell/ml after cell counting. The diluted cell suspension was added to a 96-well plate. The positive control, allosteric peptide, was added to 100 μl cell culture to a final concentration of 10 μg/ml. The mixture was replenished to 200 μL with 1640 complete medium. After 5 days of culture, the supernatant was aspirated, centrifuged at 3000 rpm for 5 minutes, and the level of IL-6 in the supernatant was detected by ELISA.

[6] = test system: CIA rats with latent tuberculosis infection
[7] = test system: CIA mice infected with chronic hepatitis B; experiment: CIA mice infected with chronic hepatitis B (Example 8); format: in vivo, mouse
Experimental: Establishment of chronic hepatitis B model in mice: DBA/1 mice were injected with Raav8-1. 3 HBV (1×10^12 vg/mL) via tail vein to establish HBV chronic hepatitis B model.
DBA/1 mice infected with chronic hepatitis B were used to establish CIA model with chronic hepatitis B infection. Methods: Two days after the mice were injected with Raav8-1.3 HBV (1×10^12 vg/mL) via tail vein, the emulsion of bovine C II and CFA (containing 100 μg collagen) was intradermally injected into the tail head of the mice for immunization. After 21 days, the mice were boosted once by intraperitoneal injection of the emulsion (containing 100 μg collagen) prepared by bovine C II and IFA. Thereafter, the morphological changes of the four paws of the mice were examined every day, and the mice were randomly assigned to the treatment group at inflammation score of 1. […] Another 10 mice with latent hepatitis B infection were not subjected to model establishment and set as the control group. PBS was administrated to both the model group and the control group. The mice in each group were given the corresponding drugs by tail intravenous injection at the volume of 10 ml/kg, once every other day, for 27 consecutive days. The mice were sacrificed on day 28 after administration. The inflammation scores of the four paws of the mice in each group were evaluated during the administration. The serological indicators for virus injection and liver function of the mice were detected on the day of booster immunization (22 days after tail vein injection) and at the time of sacrifice.

[8] = test system: immune system of healthy rats; experiment: Immune indicators of SD rats after one month of administration (Example 4); format: in vivo, rat; conditions: once a day for 4 weeks, end of administration
Experimental: SD rats were used to investigate the effects of the SE-DR affinity peptides on the immune indicators of the rats after continuous administration for one month. […] At the end of administration, analysis was conducted on the serum anti-FNS007 antibodies, different types of serum immunoglobulins, the serum complement, the peripheral blood T lymphocyte and the serum cytokines.

[9] = test system: immune system of healthy monkeys; experiment: Immune indicators of cynomolgus monkeys after one month of administration (Example 5); format: in vivo, cynomolgus monkey; conditions: once a day for 4 weeks, end of administration
Source text: Cynomolgus monkeys were used to investigate the effects of the SE-DR affinity peptide on the immune indicators of cynomolgus monkeys after continuous administration for one month. […] At the end of administration, the immune indicators, including the serum anti-FNS007 antibodies, the immunoglobulins of different serotypes, the serum complement, the peripheral blood T lymphocyte and the serum cytokines, were observed.

[10] = inflammation score AUC, APL20 0.2 mmol once every other day, methotrexate 0.5 mg/kg twice a week, i.v.
[11] = peripheral blood, […] after end of administration, flow cytometry

CN(Cc1cnc2nc(N)nc(N)c2n1)c1ccc(C(=O)N[C@@H](CCC(=O)O)C(=O)O)cc1 [Methotrexate, methotrexate]
Incidence of infection in mice (CIA rats [1]): 20% | inflammation score during drug discontinuation compared with that at the time of drug discontinuation (CIA rats [2]): significantly increased | Pathological score during 21 days of drug discontinuation (CIA rats [2]): 2.87 ± 0.79 | AUC, during drug discontinuation (day 22-42) (CIA rats [2]): 100.13 ± 50.66 | AUC, during administration (day 1-21) (CIA rats [2]; [10]): 67.69 ± 22.72 | AUC, the first week during administration (CIA rats [2]; [10]): 16.58 ± 5.23 | AUC, during administration (day 1-21) (CIA rats [2]; inflammation score AUC, APL20 0.2 mmol once every other day, methotrexate 0.5 mg/kg twice a week, i.v., listed as methotrexate): 67.69 | half lethal dose (rats): 43 mg/kg

AVKHNALKWA [APL52]
IC50 (HLA-DR1 [3]): > 100 µM

PGYVKQGTLGLAT [APL3]
IC50 (HLA-DR1 [4]): 3.35 µM

RSFTAASSETGVG [APL14]
IC50 (HLA-DR1 [3]): 6.54 µM

SIDLKDKKYKNIGAKLVQLVANNTNEEA [APL20]
Incidence of infection in mice (CIA rats [1]): 0% | inflammation score during drug discontinuation compared with that at the time of drug discontinuation (CIA rats [2]): could maintain the therapeutic effect | Pathological score during 21 days of drug discontinuation (CIA rats [2]): 2.05 ± 0.34 | AUC, during drug discontinuation (day 22-42) (CIA rats [2]): 50.11 ± 41.27 | Inflammation score and area under the time curve (AUC) (CIA rats [5]; female Lewis CIA rats, tail vein once every other day for 15 days): 55.31 ± 40.23 | Th1 (%) (CIA rats [5]; [11]): 0.18 ± 0.07 % | Th2 (%) (CIA rats [5]; [11]): 4.35 ± 0.62 % | Th17 (%) (CIA rats [5]; [11]): 0.88 ± 0.07 % | Treg (%) (CIA rats [5]; [11]): 5.46 ± 0.81 % | IL-6 levels in the supernatant (PBMC): 2.7 ng/mL | Observation on the daily condition of rats ([6]; during administration): No abnormality | Tuberculosis recurrence rate ([6]; peptides 0.2 mmol, adalimumab 1 mg/kg, 21 days): 0% | Inflammation score and area under the time curve (AUC) ([6]; peptides 0.2 mmol, adalimumab 1 mg/kg, tail i.v. once every other day for 21 days): 49.62 ± 35.87 | Culture of MTB from lungs and spleens of rats at sacrifice ([6]; sacrifice on day 22, peptides 0.2 mmol, adalimumab 1 mg/kg): Negative | ALT level ([7]; at sacrifice, day 28): 46.28 ± 17.99 U/L | Hepatitis B activation rate (Ratio of ALT > 100 U/L) ([7]; at sacrifice, day 28): 0% | Observation on the daily condition of mice ([7]; during administration): No abnormality | Inflammation score and area under the time curve (AUC) ([7]; peptides 50 μmol, Abatacept 100 μg, tail i.v. once every other day for 27 days): 92.34 ± 53.29 | CD3% [8]: 36.96 ± 9.81% | CD4% [8]: 18.96 ± 5.98% | CD8% [8]: 17.99 ± 8.23% | IFN-γ [8]: 2.58 ± 0.29 pg/mL | IL-2 [8]: 3.55 ± 2.75 pg/mL | IL-4 [8]: 2.03 ± 1.01 pg/mL | TNF-α [8]: 5.09 ± 1.88 pg/mL | CD3% [9]: 62.96 ± 9.77% | CD4% [9]: 27.82 ± 8.05% | CD8% [9]: 22.97 ± 7.09% | IFN-γ [9]: 5.18 ± 0.33 pg/mL | IL-2 [9]: 4.55 ± 0.71 pg/mL | IL-4 [9]: 2.16 ± 0.36 pg/mL | TNF-α [9]: 2.45 ± 0.38 pg/mL
